The source of these data is article PMC12388523, “Flavonoids and Sesquiterpene Lactones from Lychnophora ericoides (Arnica-Do-Cerrado) and Their In Vitro Effects on Multiple Myeloma and Acute Myeloid Leukemia” (Metabolites, 2025).

In experiment [1] the test system is KMS-12-PE cells. The experiment can be described thus: Proliferation, [3H]-thymidine uptake, KMS-12-PE. The format is cell-based. As for the experimental part:
(§1) Acute myeloid leukemia cell line HL-60 and multiple myeloma cell lines AMO-1 and KMS-12-PE were obtained from the German Collection of Microorganisms and Cell Cultures (DSMZ), Braunschweig, Germany, and non-tumorigenic stromal cell line HS-5 was acquired from the American Type Culture Collection (ATCC, Manassas, VA, USA). All cell lines were cultured in RPMI 1640 medium without phenol red (Pan Biotech, Aidenbach, Germany), supplemented with 2 mM glutamine, 100 U/mL penicillin, 100 µg/mL streptomycin (Sigma-Aldrich, St. Louis, MO, USA), and 10% fetal bovine serum (FBS Maximus, Catus Biotech GmbH, Tutzing, Germany) at 37 °C in a humidified atmosphere of 5% CO2/95% air. Cells were fed twice weekly. Logarithmically growing cells were resuspended at 1 × 10^5 cells/mL, plated in triplicate in round-bottom 96-well plates (100 µL per well; Falcon, Becton Dickinson, Franklin Lakes, NJ, USA), and incubated at 37 °C in 5% CO2/95% air for 2 h. Subsequently, the compounds were adjusted in the cell culture medium to reach the final concentrations in a total volume of 150 µL and incubated for an additional 72 h. Cell proliferation was assessed by [^3H]-thymidine uptake. Each well was exposed to 2 µCi [^3H]-thymidine (Hartmann Analytic, Braunschweig, Germany) during the final 12–16 h of incubation. Cells were harvested using a semi-automated device, and [^3H]-thymidine incorporation (expressed in counts per minute, cpm) was measured with a scintillation counter (MicroBeta TriLux, PerkinElmer, Waltham, MA, USA). Metabolic activity was assessed by resazurin staining. Resazurin (Carl Roth, Karlsruhe, Germany) was dissolved in distilled water at a concentration of 0.1 mg/mL, and 15 µL of this solution was added to each well, followed by a 2 h incubation at 37 °C. Relative fluorescence units (RFUs) were measured using a Synergy H1 plate reader equipped with a 560 nm excitation/590 nm emission filter set (BioTek; Agilent, Santa Clara, CA, USA). Proliferation and metabolic activity in the absence of compounds were defined as 100% (control), and the values for compound-treated samples were expressed as percentages relative to the control. Selectivity indices were calculated by dividing the IC50 value of each compound against HS-5 cells through the IC50 values against the investigated cell lines.
(§2) The Wilcoxon Rank Sum Test was used to analyze proliferation and metabolic activity in the absence and presence of varying compound concentrations (NCSS 2007 software, version 07.1.2, Kaysville, UT, USA). A p-value < 0.05 was considered statistically significant. IC50 values were calculated using GraphPad Prism 10.1.2. This software reports 95% confidence intervals instead of standard errors. […] Nonetheless, the figures clearly illustrate the IC50 values due to the narrow concentration range tested.

A further experiment has as its system NF-κB p65. Set-up: method as in PMID 22685350. The conditions noted are these: read-out: concentration inhibiting NF-κB p65; cited from earlier work.
In experiment [2] the test system is MOLM-13 cells. In words: Proliferation, [3H]-thymidine uptake, MOLM-13. As to conditions: Homo sapiens; MOLM-13, 72 h, 95% confidence interval in brackets; read-out: IC50 inhibition of proliferation. It is filed as cell-based. On the procedure:
[The source words this procedure for another cell line and reports this cell line under the same test.] as §1, §2

In experiment [3] the test system is AMO-1 cells. In words: Proliferation, [3H]-thymidine uptake, AMO-1. As to conditions: for IC50: AMO-1, 72 h, 95% confidence interval in brackets, read-out: IC50 inhibition of proliferation. The format is cell-based. As for the experimental part: as §1, §2
Experiment [4] deals with HS-5 cells. The experiment can be described thus: Metabolic activity, resazurin staining, non-malignant HS-5. It is filed as cell-based. As to conditions: HS5, HS-5 (non-malignant), 72 h, 95% confidence interval in brackets, read-out: IC50 inhibition of metabolic activity. As for the experimental part: as §1, with “Subsequently, the compounds were adjusted in the cell culture medium to reach the final concentrations in a total volume of 150 µL and incubated for an additional 72 h.” left out, “Each well was exposed to 2 µCi [^3H]-thymidine (Hartmann Analytic, Braunschweig, Germany) during the final 12–16 h of incubation.” left out, “Resazurin (Carl Roth, Karlsruhe, Germany) was dissolved in distilled water at a concentration of 0.1 mg/mL, and 15 µL of this solution was added to each well, followed by a 2 h incubation at 37 °C.” left out
(§3) The Wilcoxon Rank Sum Test was used to analyze proliferation and metabolic activity in the absence and presence of varying compound concentrations (NCSS 2007 software, version 07.1.2, Kaysville, UT, USA). […] IC50 values were calculated using GraphPad Prism 10.1.2. […]
A general note: The colour change of resazurin is a common sign of viable cells or microbes.

Experiment [5] relates to MOLM-13 cells. In words: Metabolic activity, resazurin staining, MOLM-13. It is filed as cell-based. On the procedure: [The source words this procedure for another cell line and reports this cell line under the same test.] as §1, §2
(§4) Proliferation inhibition often leads to cell death. Therefore, the cytotoxic activity of the compounds was further evaluated using a modified 3-(4,5-dimethylthiazol-2-yl)-2,5-diphenyltetrazolium bromide (MTT) assay, the resazurin (Alamar Blue) assay. Metabolically active cells reduce the non-fluorescent dye resazurin to the fluorescent dye resorufin via mitochondrial reductase activity, which correlates with cell viability. In the first step the metabolic activity of the four isolated flavonoids was investigated, showing a dose-dependent reduction, but to a much lower extent than in the proliferation assays (Table A2). In fact, only 7,3′,4′-trimethoxymyricetin (2) inhibited the metabolic activity of all four cell lines by more than 50% at a concentration of 100 µM.

The test system of experiment [6] is AMO-1 cells. The experiment can be described thus: Metabolic activity, resazurin staining, AMO-1. The format is cell-based. On the procedure: as §1, §2, §4
The test system of experiment [7] is HS-5 cells. The experiment can be described thus: Proliferation, [3H]-thymidine uptake, non-malignant HS-5. It is filed as cell-based. The conditions noted are these: HS5; HS-5 (non-malignant), 72 h, 95% confidence interval in brackets; read-out: IC50 inhibition of proliferation. On the procedure:
as §1, with “Subsequently, the compounds were adjusted in the cell culture medium to reach the final concentrations in a total volume of 150 µL and incubated for an additional 72 h.” left out, “Each well was exposed to 2 µCi [^3H]-thymidine (Hartmann Analytic, Braunschweig, Germany) during the final 12–16 h of incubation.” left out, “Resazurin (Carl Roth, Karlsruhe, Germany) was dissolved in distilled water at a concentration of 0.1 mg/mL, and 15 µL of this solution was added to each well, followed by a 2 h incubation at 37 °C.” left out
as §3

Experiment [8] relates to KMS-12-PE cells. The experiment can be described thus: Metabolic activity, resazurin staining, KMS-12-PE. It is filed as cell-based. On the procedure: as §1, §2, §4
In experiment [9] the test system is human colon cancer cell line HT-29. On the set-up: method as in PMID 22685350. The conditions noted are these: cited from earlier work.
Experiment [10] has as its system HL-60 cells. The experiment can be described thus: Metabolic activity, resazurin staining, HL-60. The format is cell-based. On the procedure: as §1, §2, §4
The subject of experiment [11] is HL-60 cells. The experiment can be described thus: Proliferation, [3H]-thymidine uptake, HL-60. It is filed as cell-based. The conditions noted are these: Homo sapiens; HL-60, 72 h, 95% confidence interval in brackets; read-out: IC50 inhibition of proliferation. On the procedure:
as §1, §2

The test system of a further experiment is KMS-12-PE. As to conditions: 10 nM; cited from earlier work.

As to `C=C1C(=O)O[C@@H]2/C=C(/C)C3=CC(=O)[C@@](C)(C[C@H](OC(=O)/C(C)=C\C)[C@@H]12)O3` [Compound 7, lychnopholide], the IC50 in the experiment with KMS-12-PE cells [1] (Homo sapiens, KMS-12-PE, 72 h, KMS-12-PE, 72 h, 95% confidence interval in brackets, read-out: IC50 inhibition of proliferation) is 2600 nM; with NF-κB p65 it was 2900 nM; with MOLM-13 cells [2] it was 1400 nM; with AMO-1 cells [3] it was 2200 nM; in the experiment with AMO-1 cells [3] (Homo sapiens, AMO1, 72 h), 1800 nM; with HS-5 cells [4], 4900 nM. In addition, the IC50 with MOLM-13 cells [5] (Homo sapiens, MOLM-13, 72 h, resazurin, 95% confidence interval in brackets, read-out: IC50 inhibition of metabolic activity) is 1800 nM; in the experiment on AMO-1 cells [6] (Homo sapiens, AMO1, AMO-1, 72 h, resazurin, 95% confidence interval in brackets, read-out: IC50 inhibition of metabolic activity), 3400 nM; with HS-5 cells [7], 4300 nM; with KMS-12-PE cells [8] (Homo sapiens, KMS-12-PE, 72 h, resazurin, 95% confidence interval in brackets, read-out: IC50 inhibition of metabolic activity), 4000 nM; in experiment [9], 1400 nM; in the experiment on HL-60 cells [10] (Homo sapiens, HL-60, 72 h, resazurin, 95% confidence interval in brackets, read-out: IC50 inhibition of metabolic activity) it was 2900 nM. The IC50 in the experiment on HL-60 cells [11] came out at 1300 nM. The entries for the “Selectivity index (proliferation)” value in the experiment on KMS-12-PE cells [1] (IC50 HS-5 / IC50 KMS-12-PE) and in the experiment on AMO-1 cells [3] (IC50 HS-5 / IC50 AMO-1) were 1.7 and 2.0, respectively. The “Selectivity index (metabolic activity)” value was 2.8 in the experiment with MOLM-13 cells [5] (IC50 HS-5 / IC50 MOLM-13), 1.4 in the experiment on AMO-1 cells [6] (IC50 HS-5 / IC50 AMO-1), 1.2 in the experiment on KMS-12-PE cells [8] (IC50 HS-5 / IC50 KMS-12-PE) and 1.7 in the experiment with HL-60 cells [10] (IC50 HS-5 / IC50 HL-60).

In the case of `COc1cccc2c1C(=O)c1c(O)c3c(c(O)c1C2=O)C[C@@](O)(C(=O)CO)C[C@@H]3O[C@H]1C[C@H](N)[C@H](O)[C@H](C)O1` [doxorubicin], the “proliferation inhibited to” value in the experiment with KMS-12-PE was 45.5%.
